Laboratory results taken from patent US20220169628A1 (University of Florida Research Foundation, Incorporated, priority 2019, published 2022).
Where two headings read alike, the source gives them in different places.

Columns and labels:
Type in all cases: cell-based
[1] = test system: RS4;11 cells; assay: Cell viability assay, MTS, 48 h, RS4;11; settings: for IC50: Homo sapiens, RS4-11, 48 h
Description: (§1) Acute lymphoblastic leukemia cells (MOLT-4 and RS4; 11) or small cell lung cancer (NCI-H146 or simply H146) were incubated with increasing concentrations of Bcl-xL degraders for 48 h. Cell viability was measured by tetrazolium-based MTS assay.

[2] = test system: human platelets; assay: Human platelet viability, MTS assay; settings: for IC50: Platelet, MTS assay (Table 2, FIG. 2)
Description: FIG. 2. depicts dose response curves of ABT-263 and Compound 53 in MOLT-4 T-ALL cells & human platelets determined by MTS assay.
(§2) Cancer cells from different tissue origins including acute lymphoblastic leukemia (MOLT4 and RS4; 11), small cell lung cancer (NCI-H146 or simply H146), and multiple myeloma (EJM and H929) were incubated with increasing concentrations of Examples 1-21 or ABT-263 for 72 h. Cell viability was measured by tetrazolium-based MTS assay. 5×10^4 to 1×10^5 suspension cells or 3×10^3 to 5×10^3 adherent cells were seeded and treated in 96-well plates for 72 h. The EC50 values of individual agents were calculated with GraphPad Prism.

[3] = test system: NCI-H146 cells; assay: Cell viability assay, MTS, 48 h, NCI-H146; settings: for IC50: Homo sapiens
Description: as §1

[4] = test system: MOLT-4 cells; assay: Cell viability assay, MTS, 72 h, MOLT-4; settings: for IC50: Homo sapiens
Description: as §2

[5] = test system: MOLT-4 cells; assay: Cell viability assay, MTS, 48 h, MOLT-4; settings: for IC50: Homo sapiens, MOLT-4, 48 h
Description: as §1

[6] = test system: human platelets; assay: Human platelet viability, 48 h; settings: for IC50: Platelet
[7] = test system: RS4 cells; assay: Cell viability assay, MTS, 72 h, RS4;11; settings: Homo sapiens
Description: as §2

[8] = target: T1, Bcl-xL (Homo sapiens, UniProt Q07817); assay: Protein degradation assay in MOLT-4 cells (western blot); set-up: endogenous in cells; host or cells: MOLT-4 cells; settings: 16 h, read-out: DC50 (concentration with 50% degradation) of Bcl-xL
T1 sequence (Q07817 whole entry): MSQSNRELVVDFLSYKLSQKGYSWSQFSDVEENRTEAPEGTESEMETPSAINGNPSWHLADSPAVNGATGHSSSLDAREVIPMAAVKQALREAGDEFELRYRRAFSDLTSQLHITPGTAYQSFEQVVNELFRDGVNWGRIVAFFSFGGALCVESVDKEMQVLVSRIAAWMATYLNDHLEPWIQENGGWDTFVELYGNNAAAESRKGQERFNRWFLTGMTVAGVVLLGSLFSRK
Description: (§3) MOLT4 cells and human platelets were incubated with increasing concentrations of test compounds for 16 h. The cells were harvested and lysed in RIPA lysis buffer supplemented with protease and phosphatase inhibitor cocktails. An equal amount of protein (20 μg/lane) was resolved on a pre-cast 4-20% SDS-PAGE gel. Proteins were subsequently transferred to NOVEX PVDF membranes by electrophoresis. The membranes were blocked in blocking buffer (5% non-fat dry milk in TBS-T), and incubated with primary antibodies (at optimized concentrations) overnight at 4° C. After three washings in TBS-T, the membranes were incubated with an appropriate HRP-conjugated secondary antibody for 1 h at room temperature. After extensive washing for three times, the proteins of interest were detected with ECL western blotting detection reagents and recorded with autoradiography (Pierce Biotech, Rockford, Ill., USA). The primary antibodies for Bcl-xL (Cat #2762), Bcl-2 (Cat #2872), Mcl-1 (Cat #5453) and β-actin (Cat #4970) were purchased from Cell Signaling technology. The relative band intensity was measured using ImageJ software and normalized to b-actin. The DC50 (concentration with 50% degradation) was calculated using GraphPad Prism.
MOLT-4 cells and human platelets were incubated with increasing concentrations of test compounds for 16 h. The cells were harvested and lysed in RIPA lysis buffer supplemented with protease and phosphatase inhibitor cocktails. An equal amount of protein (20 μg/lane) was resolved on a pre-cast 4-20% SDS-PAGE gel. Proteins were subsequently transferred to NOVEX PVDF membranes by electrophoresis. […] After extensive washing for three times, the proteins of interest were detected with ECL western blotting detection reagents and recorded with autoradiography (Pierce Biotech, Rockford, Ill., USA). […] The relative band intensity was measured using ImageJ software and normalized to β-actin. The DC50 was calculated using GraphPad Prism.

[9] = test system: caspase-3 and PARP; assay: Downstream apoptotic mechanism, western blot of caspase-3 and PARP in MOLT-4 cells; settings: after 16 h treatment
Description: […] At the end of incubation, cells were harvested for western blot analysis of cleaved and full length caspase-3 and poly (ADP) ribose polymerase (PARP). The antibodies for cleaved caspase-3 (Cat #9661) and PARP (Cat #9532) were purchased from Cell Signaling Technology.

[10] = target: T1, Bcl-xL; assay: Protein degradation assay in human platelets (western blot); set-up: endogenous in cells; host or cells: human platelets; settings: 16 h
Description: as §3, with “The primary antibodies for Bcl-xL (Cat #2762), Bcl-2 (Cat #2872), Mcl-1 (Cat #5453) and β-actin (Cat #4970) were purchased from Cell Signaling technology.” left out
MOLT-4 cells and human platelets were incubated with increasing concentrations of test compounds for 16 h. […] After extensive washing for three times, the proteins of interest were detected with ECL western blotting detection reagents and recorded with autoradiography (Pierce Biotech, Rockford, Ill., USA). […]

[11] = 48 h, read-out: RS4, 11 IC50 (nM, 48 h)
[12] = MOLT-4 T-ALL cells, MTS assay (Table 2, FIG. 2)
[13] = 48 h, read-out: MOLT-4 IC50 (nM, 48 h)
[14] = 48 hours, read-out: IC50 (48 hours) RS4;11
[15] = 48 hours, read-out: IC50 (48 hours) MOLT-4

| Structure (SMILES) | IC50 [1, 11] | IC50 [2] | IC50 [3] | IC50 [4, 12] | IC50 [5, 13] | IC50 [6] | IC50 [7] | effects on human platelets compared with ABT-263 ([2]; FIG. 2) | IC50 ([4]; MOLT-4 cells, 72 h, MTS) | potency in MOLT-4 cells compared with ABT-263 ([4]; MOLT-4 cells, FIG. 2) | DC50 [8] | cleavage of caspase-3 and PARP [9] | Bcl-xL levels in human platelets [10] | IC50 [1, 14] | IC50 [5, 15] | potency in killing RS4;11 cells compared with ABT-263 ([1]; 48 h, FIG. 7) | potency in killing NCI-H146 cells compared with ABT-263 ([3]; FIG. 7) | potency in killing MOLT-4 cells compared with ABT-263 ([5]; 48 h, FIG. 7) | effects on human platelets compared with ABT-263 ([6]; FIG. 7) |
| --- | --- | --- | --- | --- | --- | --- | --- | --- | --- | --- | --- | --- | --- | --- | --- | --- | --- | --- | --- |
| CC1(C)CCC(c2ccc(Cl)cc2)=C(CN2CCN(c3ccc(C(=O)NS(=O)(=O)c4ccc(N[C@H](CCN5CCOCC5)CSc5ccccc5)c(S(=O)(=O)C(F)(F)F)c4)cc3)CC2)C1 [ABT-263, reference compound] | 35 nM | 190 nM | 36 nM | 202 nM | 201 nM | 0.5 µM | – | – | – | – | – | – | – | – | – | – | – | – | – |
| Cc1ncsc1-c1ccc([C@H](C)NC(=O)[C@@H]2C[C@@H](O)CN2C(=O)[C@@H](NC(=O)CCCCCCCCC(=O)NCC2(C)CCC(c3ccc(Cl)cc3)=C(CN3CCN(c4ccc(C(=O)NS(=O)(=O)c5ccc(N[C@H](CCN6CCOCC6)CSc6ccccc6)c(S(=O)(=O)C(F)(F)F)c5)cc4)CC3)C2)C(C)(C)C)cc1 (stereo partly drawn) [Compound 53, N^1-((4′-chloro-4-methyl-6-((4-(4-(((4-(((R)-4-morpholino-1-(phenylthio)butan-2-yl)amino)-3-((trifluoromethyl)sulfonyl)phenyl)sulfonyl)carbamoyl)phenyl)piperazin-1-yl)methyl)-2,3,4,5-tetrahydro-[1,1′-biphenyl]-4-yl)methyl)-N^10—((S)-1-((2S,4R)-4-hydroxy-2-(((S)-1-(4-(4-methylthiazol-5-yl)phenyl)ethyl)carbamoyl)pyrrolidin-1-yl)-3,3-dimethyl-1-oxobutan-2-yl)decanediamide] | – | 1550 nM | – | 36 nM | – | – | 17.4 nM | substantially less effects on human platelets than ABT-263 | 36 nM | more potent than ABT-263 | – | – | – | – | – | – | – | – | – |
| Cc1ncsc1-c1ccc([C@H](C)NC(=O)[C@@H]2C[C@@H](O)CN2C(=O)[C@@H](NC(=O)CCCCCCCCC(=O)NCC2(C)CCC(c3ccc(Cl)cc3)=C(CN3CCN(c4ccc(C(=O)NS(=O)(=O)c5ccc(N[C@H](CCN6CCOCC6)CSc6ccccc6)c(S(=O)(=O)C(F)(F)F)c5)cc4)CC3)C2)C(C)(C)C)cc1 (stereo partly drawn) [degrader #5, N1-((4′-chloro-4-methyl-6-((4-(4-(((4-(((R)-4-morpholino-1-(phenylthio)butan-2-yl)amino)-3-((trifluoromethyl)sulfonyl)phenyl)sulfonyl)carbamoyl)phenyl)piperazin-1-yl)methyl)-2,3,4,5-tetrahydro-[1,1′-biphenyl]-4-yl)methyl)-N10-((S)-1-((2S,4R)-4-hydroxy-2-(((S)-1-(4-(4-methylthiazol-5-yl)phenyl)ethyl)carbamoyl)pyrrolidin-1-yl)-3,3-dimethyl-1-oxobutan-2-yl)decanediamide] | 22.2 nM | – | 88 nM | – | 31 nM | 3.5 µM | – | – | – | – | 21.5 nM | induced cleavage of caspase-3 and PARP | did not affect Bcl-xL levels | – | – | – | – | – | – |
| Cc1ncsc1-c1ccc([C@H](C)NC(=O)[C@@H]2C[C@@H](O)CN2C(=O)[C@@H](NC(=O)CCCCCCCCC(=O)NC[C@@]2(C)CCC(c3ccc(Cl)cc3)=C(CN3CCN(c4ccc(C(=O)NS(=O)(=O)c5ccc(N[C@H](CCN6CCOCC6)CSc6ccccc6)c(S(=O)(=O)C(F)(F)F)c5)cc4)CC3)C2)C(C)(C)C)cc1 [degrader #41, N1-(((S)-4′-chloro-4-methyl-6-((4-(4-(((4-(((R)-4-morpholino-1-(phenylthio)butan-2-yl)amino)-3-((trifluoromethyl)sulfonyl)phenyl)sulfonyl)carbamoyl)phenyl)piperazin-1-yl)methyl)-2,3,4,5-tetrahydro-[1,1′-biphenyl]-4-yl)methyl)-N10-((S)-1-((2S,4R)-4-hydroxy-2-(((S)-1-(4-(4-methylthiazol-5-yl)phenyl)ethyl)carbamoyl)pyrrolidin-1-yl)-3,3-dimethyl-1-oxobutan-2-yl)decanediamide] | 497 nM | – | 314 nM | – | 154 nM | 10 µM | – | – | – | – | 101 nM | – | – | > 500 nM | 150 to 500 nM | – | – | – | – |
| Cc1ncsc1-c1ccc([C@H](C)NC(=O)[C@@H]2C[C@@H](O)CN2C(=O)[C@@H](NC(=O)CCCCCCCCC(=O)NC[C@]2(C)CCC(c3ccc(Cl)cc3)=C(CN3CCN(c4ccc(C(=O)NS(=O)(=O)c5ccc(N[C@H](CCN6CCOCC6)CSc6ccccc6)c(S(=O)(=O)C(F)(F)F)c5)cc4)CC3)C2)C(C)(C)C)cc1 [degrader #42, N1-(((R)-4′-chloro-4-methyl-6-((4-(4-(((4-(((R)-4-morpholino-1-(phenylthio)butan-2-yl)amino)-3-((trifluoromethyl)sulfonyl)phenyl)sulfonyl)carbamoyl)phenyl)piperazin-1-yl)methyl)-2,3,4,5-tetrahydro-[1,1′-biphenyl]-4-yl)methyl)-N10-((S)-1-((2S,4R)-4-hydroxy-2-(((S)-1-(4-(4-methylthiazol-5-yl)phenyl)ethyl)carbamoyl)pyrrolidin-1-yl)-3,3-dimethyl-1-oxobutan-2-yl)decanediamide] | 9.9 nM | – | 45 nM | – | 15.2 nM | 1.09 µM | – | – | – | – | 11.5 nM | – | – | < 50 nM | < 50 nM | more potent | equally potent | more potent | substantially less effects on human platelets |
